Molecular target: T1, hACMSD (Homo sapiens, UniProt Q8TDX5)
T1 construct: made in house; host or cells: Pichia pastoris
Assay: Determination of ACMSD1 inhibition (spectrophotometrical in vitro assay)
Assay type: biochemical
Conditions: HAA concentration of 10 μM, 25° C.
Description: The activity of compounds as inhibitors of ACMSD1 is determined in a spectrophotometrical in vitro assay. The pre-assay mixture is incubated and a compound of Formula (I), Formula (Ia), Formula (Ib), Formula (Ic), Formula (Id), Formula (Ie), Formula (If), Formula (Ig), Formula (Ih), Formula (Ii), Formula (Ij), Formula (II), Formula (IIa), Formula (IIb), Formula (IIc), Formula (IId), Formula (IIe), Formula (IIf), Formula (IIg), Formula (IIh), Formula (IIi), Formula (IIj), Formula (IIk), and Formula (IIl), or a pharmaceutically acceptable salt thereof, and ACMSD1 solution is then added. The effect of ACMS concentration on the enzyme activity is investigated by varying 3-hydroxyanthranilic acid (30H-HA) concentration in the pre-assay mixture. Kinetic parameters are calculated from the initial velocity data using a Lineweaver-Burk plot.
The inhibition activity of ACMSD1 of compounds disclosed herein was determined by measuring the conversion of 30H-Anthranilic Acid into product (i.e., ACMS) in a spectrophotometrical in vitro assay.
The pre-assay mixture consisting of 3-hydroxyanthranilic acid (30H-HA), 3-hydroxyanthranilic acid, 3,4-diOxygenase (HAO), and a dialyzed crude extract of E. coli BL21 (DE3) cells expressing the recombinant enzyme, was incubated at 25° C. with monitoring of the increase in absorbance at 360 nm due to the formation of ACMS from 30H-HA. After the reaction was completed within 2 mins, an aliquot of ACMSD1 solution (prepared and purified from Pichia Pastoris overexpressing the recombinant enzyme) was added, and the decrease in absorbance at 360 nm was followed at 15 second intervals. The effect of ACMS concentration on the enzyme activity was investigated by varying 30H-HA concentration from 2 to 20 µM. Kinetic parameters were calculated from the initial velocity data by using the Lineweaver-Burk plot.
The rate of the decrease in absorbance caused by ACMSD1 was calculated by subtracting that of the control reaction mixture without ACMSD from that described above. One unit of ACMSD activity was indicated as the amount of enzyme that converts 1 mmol of ACMS per minute at 25° C. The absence or a reduction of ACMSD1 activity (e.g., by using ACMSD inhibitors) results in a slow ACMS-spontaneous degradation (i.e., cyclization to form quinolic acid).
The enzymatic activity was determined at a HAA concentration of 10 μM in the presence of the compounds in Table 1 below. The compounds were tested at the concentration of about […] and 10 μM and the IC50 was calculated for compounds showing inhibitory activity higher than 500.

T1 sequence (Q8TDX5 whole entry): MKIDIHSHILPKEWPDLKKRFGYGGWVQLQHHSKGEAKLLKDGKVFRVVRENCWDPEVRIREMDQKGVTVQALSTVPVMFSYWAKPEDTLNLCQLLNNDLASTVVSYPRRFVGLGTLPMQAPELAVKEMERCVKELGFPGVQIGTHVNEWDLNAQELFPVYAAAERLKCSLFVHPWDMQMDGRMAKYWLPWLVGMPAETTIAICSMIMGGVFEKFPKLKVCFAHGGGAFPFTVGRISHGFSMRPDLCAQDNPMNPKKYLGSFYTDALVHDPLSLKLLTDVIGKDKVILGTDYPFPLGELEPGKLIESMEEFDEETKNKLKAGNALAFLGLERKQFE

SMILES: COc1cccc(/C=C/c2[nH]c(=O)[nH]c(=O)c2C#N)c1OCC(=O)O [I-2, (E)-2-(2-(2-(5-cyano-2,6-dioxo-1,2,3,6-tetrahydropyrimidin-4-yl)vinyl)-6-methoxyphenoxy)acetic acid]
- IC50: 0.1 to 1 µM

SMILES: N#Cc1c(/C=C/c2cccc(OCC(=O)O)c2)[nH]c(=O)[nH]c1=O [I-3, (E)-2-(3-(2-(5-cyano-2,6-dioxo-1,2,3,6-tetrahydropyrimidin-4-yl)vinyl)phenoxy)acetic acid]
- IC50: 1 to 2 µM

SMILES: N#Cc1c(/C=C/c2ccccc2-c2cc(F)c(O)c(F)c2)[nH]c(=O)[nH]c1=O [I-4, (E)-6-(2-(3′,5′-difluoro-4′-hydroxy-[1,1′-biphenyl]-2-yl)vinyl)-2,4-dioxo-1,2,3,4-tetrahydropyrimidine-5-carbonitrile]
- IC50: 0.1 to 1 µM

SMILES: N#Cc1c(/C=C/c2ccccc2OCC(=O)O)[nH]c(=S)[nH]c1=O [I-6, (E)-2-(2-(2-(5-cyano-6-oxo-2-thioxo-1,2,3,6-tetrahydropyrimidin-4-yl)vinyl)phenoxy)acetic acid]
- IC50: 0.1 to 1 µM

SMILES: COc1cccc(/C=C/c2[nH]c(=S)[nH]c(=O)c2C#N)c1OC(C)(C)C(=O)O [I-8, (E)-2-(2-(2-(5-cyano-6-oxo-2-thioxo-1,2,3,6-tetrahydropyrimidin-4-yl)vinyl)-6-methoxyphenoxy)-2-methylpropanoic acid]
- IC50: 0.1 to 1 µM

SMILES: COc1cccc(/C=C/c2[nH]c(=S)[nH]c(=O)c2C#N)c1OC(C)C(=O)O (stereo not shown) [I-9, (E)-2-(2-(2-(5-cyano-6-oxo-2-thioxo-1,2,3,6-tetrahydropyrimidin-4-yl)vinyl)-6-methoxyphenoxy)propanoic acid]
- IC50: 0.1 to 1 µM

SMILES: COc1cccc(/C=C/c2[nH]c(=S)[nH]c(=O)c2C#N)c1 [I-10, (E)-6-(3-methoxystyryl)-4-oxo-2-thioxo-1,2,3,4-tetrahydropyrimidine-5-carbonitrile]
- IC50: 0.1 to 1 µM

SMILES: COc1cccc(/C=C/c2nc(SC)[nH]c(=O)c2C#N)c1OCC(=O)O [I-15, (E)-2-(2-(2-(5-cyano-2-(methylthio)-6-oxo-1,6-dihydropyrimidin-4-yl)vinyl)-6-methoxyphenoxy)acetic acid]
- IC50: 0.1 to 1 µM

SMILES: N#Cc1c(-c2cccc(-c3cccc(C(=O)O)c3)c2)[nH]c(=S)[nH]c1=O [I-16, 3′-(5-cyano-6-oxo-2-thioxo-1,2,3,6-tetrahydropyrimidin-4-yl)-[1,1′-biphenyl]-3-carboxylic acid]
- IC50: 0.1 to 1 µM

SMILES: CCOc1cc(/C=C/c2[nH]c(=O)[nH]c(=O)c2[N+](=O)[O-])ccc1OCC(=O)O [I-17, (E)-2-(2-ethoxy-4-(2-(5-nitro-2,6-dioxo-1,2,3,6-tetrahydropyrimidin-4-yl)vinyl)henoxy)acetic acid]
- IC50: 1 to 2 µM

Source: patent US20210230123A1, “INHIBITORS OF ALPHA-AMINO-BETA-CARBOXYMUCONIC ACID SEMIALDEHYDE DECARBOXYLASE” (TES Pharma S.r.l., priority 2016, published 2021)
